Measurements as given in US8758816B2, “Compositions comprising azelastine and methods of use thereof” (priority 2004, dated 2014).
Structures can show the parent of a compound that is named as a salt.

Test system: patients with seasonal allergic rhinitis (SAR)
Assay: MP 428 study: individual symptom severity scores (runny nose, itchy nose, sneezing, congestion; 0-3 scale)
Type: in vivo, human
Details: Intent-to-Treat Population
Protocol: A two-week, randomized, double-blind study, which evaluated the effects of the co-administration of ASTELIN® (azelastine hydrochloride (HCl)) and FLONASE® (fluticasone propionate) compared to either product alone in patients with seasonal allergic rhinitis (SAR) was conducted during the 2006 Texas mountain cedar season. After a 5-day placebo lead-in period, 151 patients with moderate-to-severe allergic rhinitis symptoms were randomized to either: (1) (49 total patients) ASTELIN® (azelastine hydrochloride (HCl)) plus placebo saline nasal spray 2 sprays per nostril, 15 minutes apart, twice daily (AM & PM); (2) (50 total patients) FLONASE® (fluticasone propionate) plus placebo saline nasal spray, 2 sprays per nostril, 15 minutes apart, once daily (AM) and two sessions of placebo saline nasal spray, 2 sprays per nostril, 15 minutes apart (PM); or (3) (52 total patients) the co-administration of ASTELIN® (azelastine hydrochloride (HCl)) 2 sprays per nostril plus FLONASE® (fluticasone propionate) 2 sprays per nostril (AM), 15 minutes apart, and ASTELIN® (azelastine hydrochloride (HCl)) 2 sprays per nostril plus placebo saline nasal spray, 15 minutes apart, (PM) for a 2-week double-blind treatment period.
The primary efficacy variable was the change from baseline in the Total Nasal Symptom Score (TNSS), which comprised sneezing, itchy nose, runny nose, and nasal congestion (individual symptoms scores were assigned a value between 0 and 3, where 0=no symptoms and 3=severe symptoms). This study was not statistically designed to assess the differences between ASTELIN® and FLONASE®.
The results of the clinical trial are summarized and presented in Appendix A hereinbelow and in FIGS. 1-6. […] FIGS. 2-5 show the mean improvement in severity score (0-3 scale) from baseline for the symptoms of runny nose, itchy nose, sneezing and congestion, respectively.

With `CN1CCCC(n2nc(Cc3ccc(Cl)cc3)c3ccccc3c2=O)CC1` (racemic) [Azelastine, (±)-1-(2H)-phthalazinone, 4-[(4-chlorophenyl)methyl]-2-(hexahydro-1-methyl-1H-azepin-4-yl)-, mono-hydrochloride] the “Change from Baseline in AM and PM Combined Nasal Symptom Score: Congestion, LS Mean” value (Day 2) was −0.73, the “Change from Baseline in AM and PM Combined Nasal Symptom Score: Congestion, Mean” value (Day 2) was −0.78 and the “Change from Baseline in AM and PM Combined Nasal Symptom Score: Congestion, Median” value (Day 2) was −0.17. The “Change from Baseline in AM and PM Combined Nasal Symptom Score: Itchy Nose, LS Mean” value (Day 2) was −0.58, the “Change from Baseline in AM and PM Combined Nasal Symptom Score: Itchy Nose, Mean” value (Day 2) was −0.61 and the “Change from Baseline in AM and PM Combined Nasal Symptom Score: Itchy Nose, Median” value (Day 2) was −0.50. For the same compound, the “Change from Baseline in AM and PM Combined Nasal Symptom Score: Runny Nose, LS Mean” value (Day 2) was −0.70, the “Change from Baseline in AM and PM Combined Nasal Symptom Score: Runny Nose, Mean” value (Day 2) was −0.72 and the “Change from Baseline in AM and PM Combined Nasal Symptom Score: Runny Nose, Median” value (Day 2) was −0.42. The “Change from Baseline in AM and PM Combined Nasal Symptom Score: Sneezing, LS Mean” value (Day 2) was −1.09, the “Change from Baseline in AM and PM Combined Nasal Symptom Score: Sneezing, Mean” value (Day 2) was −1.11 and the “Change from Baseline in AM and PM Combined Nasal Symptom Score: Sneezing, Median” value (Day 2) was −0.90. For the same compound, the “Percent Change from Baseline in AM and PM Combined Nasal Symptom Score: Congestion, LS Mean” value (shortened to “Percent Change … Congestion, LS Mean”) (Day 2) was −13.19%, the “Percent Change from Baseline in AM and PM Combined Nasal Symptom Score: Congestion, Mean” value (“Percent Change from Baseline … Congestion, Mean” below) (Day 2) was −14.05% and the “Percent Change from Baseline in AM and PM Combined Nasal Symptom Score: Congestion, Median” value (“Percent Change … Congestion, Median” for short) (Day 2) was −3.23%. For the same compound, the “Percent Change from Baseline in AM and PM Combined Nasal Symptom Score: Itchy Nose, LS Mean” value (from here on “Percent Change … Itchy Nose, LS Mean”) (Day 2) was −13.14%, the “Percent Change from Baseline in AM and PM Combined Nasal Symptom Score: Itchy Nose, Mean” value (shortened to “Percent Change from Baseline … Itchy Nose, Mean”) (Day 2) was −13.55% and the “Percent Change from Baseline in AM and PM Combined Nasal Symptom Score: Itchy Nose, Median” value (shortened to “Percent Change … Itchy Nose, Median”) (Day 2) was −11.11%. The “Percent Change from Baseline in AM and PM Combined Nasal Symptom Score: Runny Nose, LS Mean” value (shortened to “Percent Change … Runny Nose, LS Mean”) (Day 2) was −13.68%, the “Percent Change from Baseline in AM and PM Combined Nasal Symptom Score: Runny Nose, Mean” value (“Percent Change from Baseline … Runny Nose, Mean” below) (Day 2) was −14.08% and the “Percent Change from Baseline in AM and PM Combined Nasal Symptom Score: Runny Nose, Median” value (“Percent Change … Runny Nose, Median” for short) (Day 2) was −7.98%. For the same compound, the “Percent Change from Baseline in AM and PM Combined Nasal Symptom Score: Sneezing, LS Mean” value (from here on “Percent Change from Baseline … Sneezing, LS Mean”) (Day 2) was −26.72%, the “Percent Change from Baseline in AM and PM Combined Nasal Symptom Score: Sneezing, Mean” value (shortened to “Percent Change from Baseline … Sneezing, Mean”) (Day 2) was −26.94% and the “Percent Change from Baseline in AM and PM Combined Nasal Symptom Score: Sneezing, Median” value (“Percent Change from Baseline … Sneezing, Median” for short) (Day 2) was −21.05%. The “Change from Baseline in AM and PM Combined Nasal Symptom Score: Congestion, LS Mean” value (Day 3) was −0.62, the “Change from Baseline in AM and PM Combined Nasal Symptom Score: Congestion, Mean” value (Day 3) was −0.68 and the “Change from Baseline in AM and PM Combined Nasal Symptom Score: Congestion, Median” value (Day 3) was 0.00. The “Change from Baseline in AM and PM Combined Nasal Symptom Score: Itchy Nose, LS Mean” value (Day 3) was −0.85, the “Change from Baseline in AM and PM Combined Nasal Symptom Score: Itchy Nose, Mean” value (Day 3) was −0.84 and the “Change from Baseline in AM and PM Combined Nasal Symptom Score: Itchy Nose, Median” value (Day 3) was −0.75. The “Change from Baseline in AM and PM Combined Nasal Symptom Score: Runny Nose, LS Mean” value (Day 3) was −0.74, the “Change from Baseline in AM and PM Combined Nasal Symptom Score: Runny Nose, Mean” value (Day 3) was −0.79 and the “Change from Baseline in AM and PM Combined Nasal Symptom Score: Runny Nose, Median” value (Day 3) was −1.00. The “Change from Baseline in AM and PM Combined Nasal Symptom Score: Sneezing, LS Mean” value (Day 3) was −0.99, the “Change from Baseline in AM and PM Combined Nasal Symptom Score: Sneezing, Mean” value (Day 3) was −0.97 and the “Change from Baseline in AM and PM Combined Nasal Symptom Score: Sneezing, Median” value (Day 3) was −0.77. For the same compound, the “Percent Change … Congestion, LS Mean” value (Day 3) was −10.71%, the “Percent Change from Baseline … Congestion, Mean” value (Day 3) was −11.70% and the “Percent Change … Congestion, Median” value (Day 3) was 0.00%. The “Percent Change … Itchy Nose, LS Mean” value (Day 3) was −19.04%, the “Percent Change from Baseline … Itchy Nose, Mean” value (Day 3) was −18.60% and the “Percent Change … Itchy Nose, Median” value (Day 3) was −16.67%. The “Percent Change … Runny Nose, LS Mean” value (Day 3) was −13.72%, the “Percent Change from Baseline … Runny Nose, Mean” value (Day 3) was −14.69% and the “Percent Change … Runny Nose, Median” value (Day 3) was −16.67%. The “Percent Change from Baseline … Sneezing, LS Mean” value (Day 3) was −23.56%, the “Percent Change from Baseline … Sneezing, Mean” value (Day 3) was −22.81% and the “Percent Change from Baseline … Sneezing, Median” value (Day 3) was −16.08%. For the same compound, the “Change from Baseline in AM and PM Combined Nasal Symptom Score: Congestion, LS Mean” value (Day 4) was −0.78, the “Change from Baseline in AM and PM Combined Nasal Symptom Score: Congestion, Mean” value (Day 4) was −0.82 and the “Change from Baseline in AM and PM Combined Nasal Symptom Score: Congestion, Median” value (Day 4) was −0.92. The “Change from Baseline in AM and PM Combined Nasal Symptom Score: Itchy Nose, LS Mean” value (Day 4) was −1.01, the “Change from Baseline in AM and PM Combined Nasal Symptom Score: Itchy Nose, Mean” value (Day 4) was −1.00 and the “Change from Baseline in AM and PM Combined Nasal Symptom Score: Itchy Nose, Median” value (Day 4) was −0.73. For the same compound, the “Change from Baseline in AM and PM Combined Nasal Symptom Score: Runny Nose, LS Mean” value (Day 4) was −0.76, the “Change from Baseline in AM and PM Combined Nasal Symptom Score: Runny Nose, Mean” value (Day 4) was −0.79 and the “Change from Baseline in AM and PM Combined Nasal Symptom Score: Runny Nose, Median” value (Day 4) was −0.43. For the same compound, the “Change from Baseline in AM and PM Combined Nasal Symptom Score: Sneezing, LS Mean” value (Day 4) was −1.34, the “Change from Baseline in AM and PM Combined Nasal Symptom Score: Sneezing, Mean” value (Day 4) was −1.32 and the “Change from Baseline in AM and PM Combined Nasal Symptom Score: Sneezing, Median” value (Day 4) was −1.00. For the same compound, the “Percent Change … Congestion, LS Mean” value (Day 4) was −13.79%, the “Percent Change from Baseline … Congestion, Mean” value (Day 4) was −14.44% and the “Percent Change … Congestion, Median” value (Day 4) was −16.67%. The “Percent Change … Itchy Nose, LS Mean” value (Day 4) was −22.54%, the “Percent Change from Baseline … Itchy Nose, Mean” value (Day 4) was −22.23% and the “Percent Change … Itchy Nose, Median” value (Day 4) was −13.79%. The “Percent Change … Runny Nose, LS Mean” value (Day 4) was −15.76%, the “Percent Change from Baseline … Runny Nose, Mean” value (Day 4) was −16.23% and the “Percent Change … Runny Nose, Median” value (Day 4) was −7.98%. For the same compound, the “Percent Change from Baseline … Sneezing, LS Mean” value (Day 4) was −32.76%, the “Percent Change from Baseline … Sneezing, Mean” value (Day 4) was −31.90% and the “Percent Change from Baseline … Sneezing, Median” value (Day 4) was −25.00%. For the same compound, the “Change from Baseline in AM and PM Combined Nasal Symptom Score: Congestion, LS Mean” value (Day 5) was −1.02, the “Change from Baseline in AM and PM Combined Nasal Symptom Score: Congestion, Mean” value (Day 5) was −1.07 and the “Change from Baseline in AM and PM Combined Nasal Symptom Score: Congestion, Median” value (Day 5) was −0.90. The “Change from Baseline in AM and PM Combined Nasal Symptom Score: Itchy Nose, LS Mean” value (Day 5) was −1.11, the “Change from Baseline in AM and PM Combined Nasal Symptom Score: Itchy Nose, Mean” value (Day 5) was −1.10 and the “Change from Baseline in AM and PM Combined Nasal Symptom Score: Itchy Nose, Median” value (Day 5) was −0.75. For the same compound, the “Change from Baseline in AM and PM Combined Nasal Symptom Score: Runny Nose, LS Mean” value (Day 5) was −0.96, the “Change from Baseline in AM and PM Combined Nasal Symptom Score: Runny Nose, Mean” value (Day 5) was −0.97 and the “Change from Baseline in AM and PM Combined Nasal Symptom Score: Runny Nose, Median” value (Day 5) was −0.67. The “Change from Baseline in AM and PM Combined Nasal Symptom Score: Sneezing, LS Mean” value (Day 5) was −1.36, the “Change from Baseline in AM and PM Combined Nasal Symptom Score: Sneezing, Mean” value (Day 5) was −1.34 and the “Change from Baseline in AM and PM Combined Nasal Symptom Score: Sneezing, Median” value (Day 5) was −1.03.
